# Assay results taken from patent publication US20260217735A1, “HETEROCYCLES AND USES THEREOF” (Kumquat Biosciences Inc., priority 2023, published 2026).
# Like-named read-outs stand apart in the source and are kept apart here.
# What was measured:
# KRAS G12D = target: T1, KRAS G12D (Homo sapiens, UniProt P01116, G12D); test: HTRF assay, KRAS G12D interaction with SOS1; type: biochemical
# T1 construct: made in house; host or cells: E. coli, e.g. BL21 (DE3)
# LS123 cells = test: Ras cellular assay, growth of cells with K-Ras G12S mutation (CellTiter-Glo); type: cell-based; conditions: Homo sapiens, LS-123; KRAS G12S cell line; read-out: IC50 against LS123 cells
# Experimental: For example, this assay can be also used to assess selective growth inhibition of a mutant Ras protein relative to a wildtype or different mutant Ras protein.
# A549 (ATCC CRL-185) and LS123 (ATCC CRL-255) cell lines comprise a G12S mutation and can be used to assess Ras cellular signaling in vitro, e.g., in response to treatment with a compound described herein. A549 culture medium is prepared with RPMI-1640 and 10% heat-inactivated FBS. LS123 culture medium is prepared with RPMI-1640 and 10% heat-inactivated FBS. A CellTiter-Glo (CTG) luminescent based assay (Promega) is used to assess growth of the cells, as a measurement of the ability of the compounds herein to inhibit Ras signaling in the cells. The cells (e.g., 800 per well) are seeded in their respective culture medium in standard tissue culture-treated 384-well format plates (Falcon #08-772-116) or ultra-low attachment surface 384-well format plates (S-Bio #MS-9384WZ). […] Cell viability can be monitored (e.g., approximately 6 days later) according to the manufacturer's recommended instructions, where CellTiter-Glo reagent is added (e.g., approximately 10 μL), vigorously mixed, covered, and placed on a plate shaker (e.g., approximately for 20 min) to ensure sufficient cell lysis prior to assessment of luminescent signal. The IC50 values are determined using the four parameter fit. […]
# KRAS WT = target: T2, KRAS WT (Homo sapiens, UniProt P01116); test: HTRF assay, wildtype KRAS interaction with SOS1; type: biochemical; conditions: bins <500 nM / 500 nM to 1000 nM, read-out: Inhibition of KRAS WT (IC50)
# T2 construct: made in house; host or cells: E. coli, e.g. BL21 (DE3)
# T2 sequence (P01116 1-188 isoform P01116-2): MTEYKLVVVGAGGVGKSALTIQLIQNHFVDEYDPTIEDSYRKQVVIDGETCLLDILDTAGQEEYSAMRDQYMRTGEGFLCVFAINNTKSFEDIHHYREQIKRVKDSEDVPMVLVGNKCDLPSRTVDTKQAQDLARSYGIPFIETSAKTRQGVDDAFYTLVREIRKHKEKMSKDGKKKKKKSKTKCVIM
# KRAS G12V = target: T3, KRAS G12V (Homo sapiens, UniProt P01116, G12V); test: HTRF assay, KRAS G12V interaction with SOS1; type: biochemical
# T3 construct: made in house; host or cells: E. coli, e.g. BL21 (DE3)
# T3 sequence (P01116 1-188 isoform P01116-2 G12V): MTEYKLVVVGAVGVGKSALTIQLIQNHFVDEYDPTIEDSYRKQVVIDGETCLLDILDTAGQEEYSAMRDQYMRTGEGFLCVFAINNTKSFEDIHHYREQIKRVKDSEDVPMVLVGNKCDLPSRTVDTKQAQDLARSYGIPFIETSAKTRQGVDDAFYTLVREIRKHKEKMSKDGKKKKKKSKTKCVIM
# MiaPaca2 cells = test: Ras cellular assay, growth of cells with K-Ras G12C mutation; type: cell-based; conditions: Homo sapiens, MIA PaCa-2; KRAS G12C cell line; read-out: IC50 against MiaPaca2 cells
# Outline: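 MIA PaCa-2 cells (K-Ras G12C, about 125-150 cells/well) grown in 0.25% soft agar over a 0.6% agar base, compound added on day 2 at 0.3% final DMSO. Growth read on day 10 by Cell Titer 96 AQueous absorbance (490 nm, reference 660 nm) against time-zero wells; IC50 from four-parameter fit.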
# KRAS G12S = target: T4, KRAS G12S (Homo sapiens, UniProt P01116, G12S); test: HTRF assay, KRAS G12S interaction with SOS1; type: biochemical
# T4 construct: made in house; host or cells: E. coli, e.g. BL21 (DE3)
# T4 sequence (P01116 1-188 isoform P01116-2 G12S): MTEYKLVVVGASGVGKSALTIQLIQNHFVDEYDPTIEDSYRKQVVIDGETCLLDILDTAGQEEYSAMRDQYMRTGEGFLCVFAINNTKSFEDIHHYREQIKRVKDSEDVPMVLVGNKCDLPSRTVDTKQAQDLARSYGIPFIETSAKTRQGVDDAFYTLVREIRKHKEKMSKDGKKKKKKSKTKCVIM
# T1 sequence (P01116 1-188 isoform P01116-2 G12D): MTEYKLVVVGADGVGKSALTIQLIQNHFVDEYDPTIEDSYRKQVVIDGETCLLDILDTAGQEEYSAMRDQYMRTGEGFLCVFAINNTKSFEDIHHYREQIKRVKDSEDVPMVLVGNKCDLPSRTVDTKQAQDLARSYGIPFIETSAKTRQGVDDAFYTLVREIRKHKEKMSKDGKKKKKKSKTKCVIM
smiles,measurement,setting,value
"CCN(c1nc(OCC23CCCN2C(COc2cc(C(F)(F)F)ncn2)CC3)nc2c(F)c(-c3ccc(F)c4sc(N)c(C#N)c34)c(Cl)cc12)[C@@H]1CCN(C(=O)n2cc(C)nc2C)[C@@H]1C (single isomer, unassigned) [Compound 197]",IC50,"KRAS G12D; bins <500 nM / 500 nM to 1000 nM, read-out: Inhibition of KRAS G12D (IC50)",< 500 nM
same,IC50,KRAS G12D; read-out: IC50 against KRAS G121,< 5 nM
same,IC50,LS123 cells,4.6 nM
same,IC50,KRAS WT,< 500 nM
same,IC50,"KRAS G12V; bins <500 nM / 500 nM to 1000 nM, read-out: Inhibition of KRAS G12V (IC50)",< 500 nM
same,IC50,KRAS G12V; read-out: IC50 against KRAS G12V,< 5 nM
same,IC50,MiaPaca2 cells,0.42 nM
same,IC50,"KRAS G12S; bins <500 nM / 500 nM to 1000 nM, read-out: Inhibition of KRAS G12S (IC50)",< 500 nM
same,IC50,KRAS G12S; read-out: IC50 against KRAS G12S,< 5 nM
